Reference: patent US20250243203A1, “NICOTINAMIDE- AND BENZAMIDE-BASED COMPOUNDS, CONJUGATES, AND COMPOSITIONS AS INHIBITORS OF TRANSLATIONAL- AND TRANSCRIPTIONAL-RELATED KINASES” (PURDUE RESEARCH FOUNDATION, priority 2022, published 2025)
Like-named read-outs stand apart in the source and are kept apart here.

Columns and labels:
[1] = Oral bioavailability study in mice; format: in vivo, Male CD1 Mice; conditions: 10 mg/Kg, FIG. 5
Procedure: The bioavailability and Cmax of the ring-6-substituted imidazo[1,2-b]pyridazine compounds were also assessed.
Briefly, compounds were dissolved in 10% dimethylsulfoxide (DMSO)/90% (20% HP-β-CD in water (w/w)). Male CD1 Mice (n=3) were dosed orally with 10 mg/Kg of each compound (HSND80, HSND41, HSND101, HSND102, HSND141, and HSND156). Blood was sampled at 0.25 hours, 0.5 hour, 1 hour, 2 hours, 4 hours, 8 hours, and 24 hours post dose, and the concentration of compound in blood at each specific time point was determined via liquid chromatography-mass spectrometry (LC-MS) (high-performance liquid chromatography (HPLC) instrument: Shimadzu; MS instrument: AB API 5500 LC/MS/MS; Column: HALO C18 90 A 2.7 μm (30*2.1 mm); Mobile phase A: 5% Acetonitrile in Water (0.1% Formic acid); Mobile phase B: 95% Acetonitrile in Water (0.1% Formic acid)).

[2] = target: T1, MER Proto-Oncogene tyrosine kinase (MERTK) (Homo sapiens, UniProt Q12866); experiment: KINOMEscan competition binding assay (Eurofins DiscoverX), MERTK
T1 construct: purchased Eurofins DiscoverX (KINOMEscan service)
T1 sequence (Q12866 21-999): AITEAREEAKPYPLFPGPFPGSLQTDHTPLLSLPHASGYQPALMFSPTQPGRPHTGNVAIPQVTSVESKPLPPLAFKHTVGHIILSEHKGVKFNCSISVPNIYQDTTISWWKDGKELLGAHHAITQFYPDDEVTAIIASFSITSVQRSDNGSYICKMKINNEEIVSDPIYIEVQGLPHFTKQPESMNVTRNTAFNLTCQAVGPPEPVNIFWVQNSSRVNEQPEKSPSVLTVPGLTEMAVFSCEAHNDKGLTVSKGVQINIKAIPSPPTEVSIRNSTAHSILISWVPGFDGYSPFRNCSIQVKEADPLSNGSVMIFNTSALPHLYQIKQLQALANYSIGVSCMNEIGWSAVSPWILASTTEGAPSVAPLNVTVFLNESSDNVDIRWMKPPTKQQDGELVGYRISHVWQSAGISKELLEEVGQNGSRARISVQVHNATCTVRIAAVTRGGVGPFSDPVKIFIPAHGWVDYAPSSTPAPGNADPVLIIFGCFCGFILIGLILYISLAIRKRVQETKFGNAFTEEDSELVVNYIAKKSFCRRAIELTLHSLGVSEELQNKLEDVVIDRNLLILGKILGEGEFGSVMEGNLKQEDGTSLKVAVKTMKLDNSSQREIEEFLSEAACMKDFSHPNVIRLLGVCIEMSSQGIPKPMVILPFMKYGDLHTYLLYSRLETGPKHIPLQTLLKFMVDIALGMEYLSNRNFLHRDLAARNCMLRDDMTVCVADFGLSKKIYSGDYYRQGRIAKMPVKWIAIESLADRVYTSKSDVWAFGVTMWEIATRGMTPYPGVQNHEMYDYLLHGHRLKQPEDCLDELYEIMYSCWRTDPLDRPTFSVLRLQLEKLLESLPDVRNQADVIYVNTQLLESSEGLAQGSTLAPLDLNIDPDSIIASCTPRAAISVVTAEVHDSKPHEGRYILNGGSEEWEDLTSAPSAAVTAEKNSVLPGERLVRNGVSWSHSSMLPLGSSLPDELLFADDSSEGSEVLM
Procedure: The affinity of several compounds hereof having a substituent on the imidazo[1,2-b]pyridazine moiety at position-6, wherein the substituent comprised one or more ring moieties was evaluated with respect to two TAM kinases: AXL and MERTK. Perhaps more specifically, the equilibrium dissociation constant between each of compounds HSND141, compound HSND149, HSND150, HSND151, and HSND80 and AXL and MERTK was evaluated at Eurofins DiscoverX using KINOMEscan™, which is a competition binding assay that quantitively measured the ability of each tested compound to displace an immobilized, active-site directed ligand. The assay uses DNA-tagged kinase, an immobilized ligand, and the test compound. Quantitative polymerase chain reaction (PCR) of the DNT tag was then used to measure the ability of the tested compound to displace the immobilized ligand.

[3] = test system: MDA-MB-231 (breast cancer); experiment: Growth inhibition of MDA-MB-231 (NCI-60 human tumor cell line screen); format: cell-based
p70S6K = p70S6K (Homo sapiens, UniProt P23443); experiment: p70S6K inhibition, in vitro studies at Reaction Biology Corporation; format: biochemical; conditions: 25 nM compound, [ATP]=10 uM
Procedure: The nature of the substituent on the imidazo[1,2-b]pyridazine moiety at position-6 was evaluated in in vitro studies performed at Reaction Biology Corporation (Malvern, PA). The results indicated the specific substituent dramatically affected the inhibition of p70S6K.

Caki-1 (renal cancer) = experiment: Growth inhibition of Caki-1 (NCI-60 human tumor cell line screen); format: cell-based; conditions: 200 nM
MNK2 = MNK2 (Homo sapiens, UniProt Q9HBH9); experiment: MNK2 inhibition, in vitro studies at Reaction Biology Corporation; format: biochemical; conditions: 50 nM compound, 10 uM ATP
CT-26 C2 tumor cells = experiment: CT-26 in vivo tumor reduction; set-up: species or system BALB/c female mouse; conditions: CT-26, day 17 from start of dosing, oral QD
Procedure: Each BALB/c female mouse was inoculated subcutaneously at the right flank with CT-26 C2 tumor cells (0.3×10^6/mouse) in 0.1 mL PBS for tumor development. Treatments for the efficacy study were started on day 10 after tumor inoculation when the average tumor size reached approximately 71 mm^3. Each group consisted of 6 tumor-bearing mice. Vehicle control was 25 mM citrate buffer (pH 2.5). HSND80 was dosed orally QD at 15 mg/Kg for 4 days and 10 mg/Kg afterwards. HSND100 was dosed at 15 mg/Kg. Mice were dosed 5 days on and 2 days off (drug holiday). Tumors were measured every other day (L, W, H) to give tumor volume in mm^3.

[4] = test system: multiple myeloma cell lines; experiment: Inhibition of multiple myeloma cell lines; format: cell-based, human; conditions: FIG. 4

MNK2, sequence (Q9HBH9 whole entry): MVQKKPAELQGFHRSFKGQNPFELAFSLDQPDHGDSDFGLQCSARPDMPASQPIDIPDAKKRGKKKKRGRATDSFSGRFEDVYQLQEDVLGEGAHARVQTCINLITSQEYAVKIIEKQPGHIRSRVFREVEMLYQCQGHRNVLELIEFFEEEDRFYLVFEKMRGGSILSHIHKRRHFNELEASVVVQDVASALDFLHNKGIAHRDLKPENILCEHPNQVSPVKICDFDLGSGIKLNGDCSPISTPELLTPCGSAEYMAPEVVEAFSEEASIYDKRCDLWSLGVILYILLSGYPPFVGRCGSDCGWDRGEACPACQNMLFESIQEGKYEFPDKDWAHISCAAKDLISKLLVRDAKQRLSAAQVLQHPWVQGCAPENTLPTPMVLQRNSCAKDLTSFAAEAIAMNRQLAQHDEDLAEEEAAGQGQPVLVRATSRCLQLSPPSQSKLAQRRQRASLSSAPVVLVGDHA
p70S6K, sequence (P23443 whole entry): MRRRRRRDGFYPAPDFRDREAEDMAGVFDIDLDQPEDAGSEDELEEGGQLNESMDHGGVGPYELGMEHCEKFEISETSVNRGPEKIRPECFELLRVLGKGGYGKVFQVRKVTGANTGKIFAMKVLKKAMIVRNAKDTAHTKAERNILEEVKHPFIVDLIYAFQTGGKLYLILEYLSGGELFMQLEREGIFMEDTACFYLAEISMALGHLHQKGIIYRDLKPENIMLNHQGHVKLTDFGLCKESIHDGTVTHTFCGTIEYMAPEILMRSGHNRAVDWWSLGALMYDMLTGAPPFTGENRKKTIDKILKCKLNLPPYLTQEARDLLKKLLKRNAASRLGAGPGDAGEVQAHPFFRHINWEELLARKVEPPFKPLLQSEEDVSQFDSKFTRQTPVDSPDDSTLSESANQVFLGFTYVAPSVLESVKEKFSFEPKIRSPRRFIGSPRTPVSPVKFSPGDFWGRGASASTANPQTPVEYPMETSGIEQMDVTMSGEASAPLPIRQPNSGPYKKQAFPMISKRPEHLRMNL

Kd ([2]; FIG. 7A, replicate 1, read-out: Kd MERTK, replicate 1): 1.6 nM
Kd ([2]; FIG. 7B, replicate 2, read-out: Kd MERTK, replicate 2): 2.1 nM
Kd ([2]; Table 1, DiscoverX Eurofins, read-out: Kd MERTK): < 0.17 nM
inhibition of p70S6K (p70S6K): 97%
inhibition at 0.05 µM (MNK2): 96%
Compound: C[C@@H]1CN(c2ccc3ncc(C#Cc4cncc(C(=O)Nc5ccc(CN6CCN(C)CC6)c(C(F)(F)F)c5)c4)n3n2)C[C@H](C)O1 [HSND80, 5-((6-((2S,6R)-2,6-Dimethylmorpholino)imidazo[1,2-b]pyridazin-3-yl)ethynyl)-N-(4-((4-methylpiperazin-1-yl)methyl)-3-(trifluoromethyl)phenyl)nicotinamide]
bioavailability [1]: more bioavailablity than unsubstituted morpholine (compound HSND41)
inhibition at 0.2 µM ([3]; 200 nM): 100%
IC50 ([3]; 72 hours): 8.6 nM
inhibition at 0.2 µM (Caki-1 (renal cancer)): 100%
tumor reduction compared to vehicle control (CT-26 C2 tumor cells): 45%
inhibition of multiple myeloma cell lines [4]: potently inhibited
